Experimental data from US11708360B2, “N-substituted-dioxocyclobutenylamino-3-hydroxy-picolinamides useful as CCR6 inhibitors” (Pfizer Inc., priority 2018, dated 2023).
Where two headings read alike, the source gives them in different places. Blank lines part the entries; values can stand above or below the molecule they belong to.

Experiments:
CXCR2 [1] = target: T1, CXCR2 (Homo sapiens, UniProt P25025); set-up: host or cells: Path-Hunter HEK293 cells; conditions: Table 16; data disclosed in WO 2013/061005; β-arrestin recruitment, CXCL8, Path-Hunter HEK293 cells; cited from earlier work
T1 sequence (P25025 1-360): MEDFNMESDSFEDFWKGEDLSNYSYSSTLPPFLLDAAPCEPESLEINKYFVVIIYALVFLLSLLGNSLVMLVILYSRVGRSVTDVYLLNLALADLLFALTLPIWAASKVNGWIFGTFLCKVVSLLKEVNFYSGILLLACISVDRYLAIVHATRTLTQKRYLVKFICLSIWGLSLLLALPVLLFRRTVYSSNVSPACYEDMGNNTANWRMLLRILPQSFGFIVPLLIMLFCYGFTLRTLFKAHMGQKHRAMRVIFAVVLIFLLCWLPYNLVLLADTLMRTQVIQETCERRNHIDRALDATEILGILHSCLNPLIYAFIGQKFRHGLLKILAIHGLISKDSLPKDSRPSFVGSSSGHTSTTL

CXCR2 [2] = target: T1, CXCR2; assay: Human Neutrophil Chemotaxis Assay; type: cell-based; set-up: Human neutrophils were purified from freshly drawn human whole blood; endogenous in cells; host or cells: primary human neutrophils from fresh whole blood
Method: After 30 min, the labeled neutrophils were washed twice in chemotaxis buffer, resuspended as before and used immediately. For the assay, test compounds were tested in a dose-response format to determine IC50. Labeled neutrophils (50 μL) were pre-incubated with diluted test compound (50 μL) for 30 min in a 96-well plate (Greiner). Next, 100 μL of diluted compound was mixed with 100 μL of GROα (Peprotech #300-11, 2 nM) in the bottom portion of the chemotaxis chamber. The top portion (insert) of the chemotaxis system containing the FluoroBlok porous membrane was then assembled together. 50 μL of the pre-incubated neutrophils were added to the FluoroBlok insert (top portion) and chemotaxis measured by the neutrophils ability to migrate through the membrane towards the specific CXCR2 ligand, GROα.
IC50 values for compounds of the present invention (Table 12) were determined by the non-linear regression analysis of dose response curves.

CCR6 = target: T2, CCR6 (Homo sapiens, UniProt P51684); assay: CCR6+ T Cell Chemotaxis Assay; type: cell-based; conditions: for T Cell Chemotaxis Selectivity: Table 13, T cell chemotaxis compared to neutrophil chemotaxis; for T Cell Chemotaxis Selectivity / R = H, T Cell Chemotaxis Selectivity: NS = not selective for T cell chemotaxis compared to neutrophil chemotaxis
T2 construct: Human CD4+CCR6+CXCR3-T cells were isolated from leukopak from healthy donors; endogenous in cells
T2 sequence (P51684 1-374): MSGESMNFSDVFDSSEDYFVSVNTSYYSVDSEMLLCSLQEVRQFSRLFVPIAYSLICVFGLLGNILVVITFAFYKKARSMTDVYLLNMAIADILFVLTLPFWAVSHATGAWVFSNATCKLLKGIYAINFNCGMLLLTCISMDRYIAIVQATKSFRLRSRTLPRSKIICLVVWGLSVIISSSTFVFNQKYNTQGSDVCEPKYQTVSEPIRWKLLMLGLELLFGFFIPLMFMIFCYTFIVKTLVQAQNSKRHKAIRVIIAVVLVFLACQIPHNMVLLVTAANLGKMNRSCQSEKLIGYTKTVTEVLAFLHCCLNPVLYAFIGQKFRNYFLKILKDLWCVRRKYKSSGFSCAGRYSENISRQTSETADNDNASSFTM
Text: Human CD4+CCR6+CXCR3-T cells were isolated from leukopak from healthy donors using EasySep™ Human Th17 Cell Enrichment Kit. […] Day 4 post activation, Dynabeads were removed from the culture. The activated T cells were maintained at 1-2×10^6 cells/mL for 15 days by feeding fresh growth media when needed.
For IC50 determination, the top and bottom of the chemotaxis chamber contained the same concentration of compound. DMSO was kept constant at 0.1% (v/v) in all wells. The final concentration of CCL20 (Peprotech 300-29A) in the bottom chamber is 0.5 nM. The fully assembled chemotaxis plate was placed in a cell culture incubator at 37° C., 5% CO2 for 1 h. After incubation, the top filter was removed, followed by a quick freeze of the bottom chamber at −80° C. for 1 h. The migrated cells in the bottom chamber were stained with CyQUANT dye (Life Technologies, C7026) for cell number determination.
IC50 values for compounds of the present invention (Table 11) were determined by the non-linear regression analysis of dose response curves.

[3] = Table 17, WO 2013/061005 comparator compounds, read-out: IC50 (nM) CXCR2 Neutrophil, GROα Chemotaxis
[4] = Table 12, human neutrophils migrating towards the CXCR2 ligand GROα, read-out: IC50
[5] = Table 11, human CD4+CCR6+CXCR3- T cells, CCL20 0.5 nM in bottom chamber, 1 h at 37° C., read-out: IC50
[6] = Table 14, R = H, read-out: R = H, IC50 (nM) CXCR2 Neutrophil, GROα Chemotaxis
[7] = Table 14, R = H, read-out: R = H, IC50 (nM) CCR6 T cell, CCL20 Chemotaxis

IC50 (CXCR2 [2]; [3]): 35.2 nM
Structure (SMILES): Cc1ccc([C@H](Nc2c(Nc3ccc(Cl)c(S(=O)(=O)N(C)C)c3O)c(=O)c2=O)C2(C)COC2)o1 [Example 22 (WO 2013/061005), reference compound]
IC50 (CXCR2 [1]): 0.031 µM

IC50 (CXCR2 [2]; [4]): 2750 nM
IC50 (CCR6; [5]): 45.4 nM
T Cell Chemotaxis Selectivity (CCR6): 60
Structure (SMILES): CC(C)N(C)C(=O)c1nccc(Nc2c(N[C@@H](c3nn(C)cc3C#N)C3(C)CCCC3)c(=O)c2=O)c1O [Example 31, (R)-4-((2-(((4-cyano-1-methyl-1H-pyrazol-3-yl)(1-methylcyclopentyl)methyl)amino)-3,4-dioxocyclobut-1-en-1-yl)amino)-3-hydroxy-N-isopropyl-N-methylpicolinamide]

IC50 (CXCR2 [2]; [4]): 332 nM
IC50 (CXCR2 [2]; Table 14, R = CH3, read-out: R = CH3, IC50 (nM) CXCR2 Neutrophil, GROα Chemotaxis): 332 nM
IC50 (CCR6; [5]): 2.7 nM
T Cell Chemotaxis Selectivity (CCR6): 123
R = CH3, T Cell Chemotaxis Selectivity (CCR6; Table 14, R = CH3): 123
IC50 (CCR6; Table 14, R = CH3, read-out: R = CH3, IC50 (nM) CCR6 T cell, CCL20 Chemotaxis): 2.7 nM
Structure (SMILES): Cc1nc([C@H](Nc2c(Nc3ccnc(C(=O)N(C)C)c3O)c(=O)c2=O)C2(C)CCCC2)c(C)s1 [Example 32, (R)-4-((2-(((2,5-Dimethylthiazol-4-yl)(1-methylcyclopentyl)-methyl)amino)-3,4-dioxocyclobut-1-en-1-yl)amino)-3-hydroxy-N,N-dimethylpicolinamide]

IC50 (CXCR2 [2]; [4]): 69.9 nM
IC50 (CCR6; [5]): 4.4 nM
T Cell Chemotaxis Selectivity (CCR6): 16
Structure (SMILES): COc1sc(C)nc1[C@H](Nc1c(Nc2ccnc(C(=O)N(C)C)c2O)c(=O)c1=O)C1(C)CCCC1 [Example 33, (R)-3-Hydroxy-4-((2-(((5-methoxy-2-methylthiazol-4-yl)(1-methylcyclopentyl)methyl)amino)-3,4-dioxocyclobut-1-en-1-yl)amino)-N,N-dimethylpicolinamide]

IC50 (CXCR2 [2]; [4]): 3630 nM
IC50 (CCR6; [5]): 5.2 nM
T Cell Chemotaxis Selectivity (CCR6): 698
Structure (SMILES): CCc1cn(C)nc1[C@H](Nc1c(Nc2ccnc(C(=O)N(C)C)c2O)c(=O)c1=O)[C@]1(C)CC(F)(F)CO1 [Example 37, 4-((2-(((S)-((S)-4,4-Difluoro-2-methyltetrahydrofuran-2-yl) (4-ethyl-1-methyl-1H-pyrazol-3-yl)methyl)amino)-3,4-dioxocyclobut-1-en-1-yl)amino)-3-hydroxy-N,N-dimethylpicolinamide]

IC50 (CXCR2 [2]; [4]): 3460 nM
IC50 (CCR6; [5]): 12.6 nM
T Cell Chemotaxis Selectivity (CCR6): 274
Structure (SMILES): Cc1nc([C@H](Nc2c(Nc3ccnc(C(=O)N(C)C)c3O)c(=O)c2=O)[C@]2(C)CC(F)(F)CO2)c(C)s1 [Example 38, 4-((2-(((S)-((S)-4,4-Difluoro-2-methyltetrahydrofuran-2-yl) (2,5-dimethylthiazol-4-yl)methyl)amino)-3,4-dioxocyclobut-1-en-1-yl)amino)-3-hydroxy-N,N-dimethylpicolinamide]

IC50 (CXCR2 [2]; [3]): 1140 nM
Structure (SMILES): Cc1ccc([C@H](Nc2c(Nc3ccc(Cl)c(C(=O)N4CCN(C)CC4)c3O)c(=O)c2=O)C2(C)COC2)o1 [Example 53, reference compound]
IC50 (CXCR2 [1]): 0.03 µM

IC50 (CXCR2 [2]; Table 15, WO 2010/131145 comparator compounds, read-out: IC50 (nM) CXCR2 Neutrophil, GROα Chemotaxis): 5.7 nM
IC50 (CCR6; Table 15, WO 2010/131145 comparator compounds, read-out: IC50 (nM) CCR6 T cell, CCL20 Chemotaxis): 388 nM
Structure (SMILES): CC[C@@H](Nc1c(Nc2ccnc(C(=O)N(C)C)c2O)c(=O)c1=O)c1cccc(C2CC2)c1 [Example 120, reference compound]

IC50 (CXCR2 [2]; [6]): 42.1 nM
R = H, T Cell Chemotaxis Selectivity (CCR6; Table 14, R = H): 2.2
IC50 (CCR6; [7]): 19.2 nM
Structure (SMILES): CN(C)C(=O)c1nccc(Nc2c(NC(c3ccn(C)n3)C3(C)CCCC3)c(=O)c2=O)c1O (centres unmarked) [drawing 179 (R = H), reference compound]

IC50 (CXCR2 [2]; [6]): 346 nM
R = H, T Cell Chemotaxis Selectivity (CCR6; Table 14, R = H): 10.8
IC50 (CCR6; [7]): 32.1 nM
Structure (SMILES): Cc1nc([C@H](Nc2c(Nc3ccnc(C(=O)N(C)C)c3O)c(=O)c2=O)C2(C)CCCC2)cs1 [drawing 180 (R = H), reference compound]

IC50 (CXCR2 [2]; [6]): 12.2 nM
IC50 (CCR6; [7]): 64.5 nM
Structure (SMILES): Cc1nc([C@H](Nc2c(Nc3ccnc(C(=O)N(C)C)c3O)c(=O)c2=O)C2(C)CCCC2)co1 [drawing 181 (R = H), reference compound]
